Here are results for five compounds from patent publication EP3076175A1, “DETECTION AND QUANTIFICATION OF O-ACETYL-ADP-RIBOSE AS A READOUT SYSTEM FOR MEASURING THE ACTIVITY OF E.G. SIRTUINS” (Boehringer Ingelheim International GmbH, priority 2015, dated 2016).

Test [1] concerns the target T1, GST-tagged macro-domain protein (Archaeoglobus fulgidus, UniProt O28751).
T1 construct: For the N-terminal GST fusion of AF1521 the gene for residues 1-192 was synthesized; made in house; host or cells: E. coli BL21 Star (DE3) / BL21 Tuner (DE3)
T1 sequence (O28751 1-192): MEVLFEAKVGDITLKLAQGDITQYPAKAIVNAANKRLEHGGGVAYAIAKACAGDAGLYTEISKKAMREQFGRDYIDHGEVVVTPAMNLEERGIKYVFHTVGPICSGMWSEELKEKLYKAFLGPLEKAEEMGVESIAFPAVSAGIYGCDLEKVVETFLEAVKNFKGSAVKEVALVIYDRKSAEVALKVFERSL
The experiment in a line: Titration curve: competition with biotinylated ADP-ribose for binding to the macro-domain protein (luminescence signal). The settings on record: rising concentration of competitor against biotinylated ADP-ribose. As for the experimental part:
(§1) After that 2 µl of an acetylated peptide (final concentration of 10 µM) mixed with NAD^+ (final concentration of 500 µM, dissolved in assay buffer 1) and 2 µl of SIRT enzyme (final concentration of 20 nM for 1x SIRT (100% CTL) and 200 nM for 10x SIRT (1000% CTL), dissolved in assay buffer 1) are added by a Multidrop combi. After an incubation time of 20 min at room temperature 4 µl biotinylated ADP-ribose (final concentration 50 nM, dissolved in assay buffer 2) and 4 µl GST tagged macro-domain protein (final concentration 50 nM, dissolved in assay buffer 2) are added by a Multidrop combi. After another incubation time of 60 min at room temperature 4 µl of acceptor beads and 4 µl of donor beads (final concentration of each bead-type 20 µg/ml, both dissolved in assay buffer 2) are added by a Multidrop combi. The plates are then sealed and incubated in the dark at room temperature for at least 30 min. After the incubation period, the plates are measured using the Envision reader from Perkin Elmer.
Assay was performed as described in example 4 (general SOP) besides the fact that instead of ADP-ribose 2'/3'-O-acetyl-ADP-ribose was used for the titration curve.
Assay was performed as described in example 4 (general SOP) employing non-biotinylated ADP-ribose for the titration curve.

The target in another test is T2, SIRT1 (Homo sapiens, UniProt Q96EB6).
T2 construct: made in house; host or cells: E. coli BL21 Star (DE3)
T2 sequence (Q96EB6 183-664): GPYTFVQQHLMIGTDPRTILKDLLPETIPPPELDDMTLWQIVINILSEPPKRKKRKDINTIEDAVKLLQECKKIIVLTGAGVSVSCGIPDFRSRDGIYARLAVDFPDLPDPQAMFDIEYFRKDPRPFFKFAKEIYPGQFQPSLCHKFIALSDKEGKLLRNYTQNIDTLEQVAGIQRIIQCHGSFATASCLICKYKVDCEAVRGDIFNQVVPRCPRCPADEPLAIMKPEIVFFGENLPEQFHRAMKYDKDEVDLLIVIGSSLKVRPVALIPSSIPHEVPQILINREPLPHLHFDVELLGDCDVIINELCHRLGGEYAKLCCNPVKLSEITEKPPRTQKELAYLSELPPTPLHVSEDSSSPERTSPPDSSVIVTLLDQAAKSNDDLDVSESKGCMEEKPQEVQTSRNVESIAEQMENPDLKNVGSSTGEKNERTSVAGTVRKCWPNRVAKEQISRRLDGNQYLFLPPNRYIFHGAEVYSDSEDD
In words: Macro-domain protein assay for SIRT modulators (detection of generated 2'/3'-O-acetyl-ADP-ribose, donor/acceptor beads). The settings on record: 10x SIRT (200 nM), 10 µM compound. In kind it is biochemical. As for the experimental part:
200 nl of test compound in 100% DMSO (final concentration of compound 10 µM; DMSO 1%) is given in the 384-well plates by a Cybio Cybiwell capillary head pipettor.
as §1, with “Elmer. […]” for “Elmer.”

The target in the next test is T3, GST-tagged AF1521 (Archaeoglobus fulgidus, UniProt O28751).
T3 construct: For the N-terminal GST fusion of AF1521 the gene for residues 1-192 was synthesized; made in house; host or cells: E. coli BL21 Star (DE3) / BL21 Tuner (DE3)
T3 sequence (O28751 1-192): T1 sequence (O28751 1-192)
The experiment in a line: Nucleotide ligand binding assay by isothermal calorimetry (ITC). The settings on record: for ΔG: change in Gibbs free energy of binding; for ΔS: change in entropy. As for the experimental part: Nucleotide binding assays were performed using isothermal calorimetry (ITC) on a ITC200 (Microcal) at 25°C. Protein was buffer exchanged using PD10 columns (GE Healthcare) into 50 mM Tris pH 7.5; 150 mM NaCl and 1 mM TCEP. Nucleotides were resuspended in ITC buffer and their concentration were determined through absorbance at 260 nm. Macro-domain proteins were used at 50 µM concentration, whereas the nucleotides were used at 500 µM. ITC measurements were performed by 20 successive injections of 2 µl of the nucleotides into 280 µl of AF1521 with a duration of 4 seconds and 150 seconds of spacing. Data analysis was done using the software ORIGIN 7.0 (Microcal).

Where [2] appears, read: ITC at 25°C, protein 50 µM, nucleotide 500 µM, read-out: KD.

Read-outs that look alike come from different tables or passages of the source.

On to `Nc1ncnc2c1ncn2[C@@H]1O[C@H](COP(=O)(O)OP(=O)(O)OC[C@H]2OC(O)[C@H](O)[C@@H]2O)[C@@H](O)[C@H]1O` (some centres unmarked) [ADP-ribose], for which the luminescence signal result in test [1] is reported as “the luminescence signal decreases”.

Turning to `O=C(Nc1nccs1)c1cccc2ccc(-c3cccc(OC4CCNCC4)c3)nc12` [EX00001253], the “amount of generated 2'/3'-O-acetyl-ADP-ribose” value at SIRT1 was “reduces the amount of generated 2'/3'-O-acetyl-ADP-ribose”.

Consider `Cc1ccc(C(=O)Nc2ccc(S(=O)(=O)O)c3cc(S(=O)(=O)O)cc(S(=O)(=O)O)c23)cc1NC(=O)c1cccc(NC(=O)Nc2cccc(C(=O)Nc3cc(C(=O)Nc4ccc(S(=O)(=O)O)c5cc(S(=O)(=O)O)cc(S(=O)(=O)O)c45)ccc3C)c2)c1` [Suramin], for which the “amount of generated 2'/3'-O-acetyl-ADP-ribose” value on SIRT1 is “reduces the amount of generated 2'/3'-O-acetyl-ADP-ribose”.

For orientation: Kd means the free concentration of one partner at which half of the binding sites on the other are occupied at equilibrium, for simple one-to-one binding. For `CC(=O)O[C@@H]1[C@@H](COP(=O)(O)OP(=O)(O)OC[C@H]2O[C@@H](n3cnc4c(N)ncnc43)[C@H](O)[C@@H]2O)OC(O)[C@@H]1O` (some centres unmarked) [acetyl ADP-ribose, 2'/3'-O-acetyl-ADP-ribose], on GST-tagged AF1521 (ITC at 25°C), the “-TΔS” value was -2.271 kcal/mol, the ΔG was -7.339 kcal/mol and the ΔS was 7,63 cal/mol/K. Moreover, the Kd at GST-tagged AF1521 (setting [2]) amounted to 4140 nM. The same compound registered a ΔH on GST-tagged AF1521 (change in enthalpy, ITC at 25°C) of -5.07 kcal/mol. For the same compound, the luminescence signal result in test [1] was “the luminescence signal decreases”.

Turning to `Nc1ncnc2c1ncn2[C@@H]1O[C@H](COP(=O)(O)OP(=O)(O)OC[C@@H](O)[C@@H](O)[C@@H](O)C=NOCC(=O)NCCOCCOCCOCCOCCNC(=O)CCCC[C@@H]2SC[C@@H]3NC(=O)N[C@@H]32)[C@@H](O)[C@H]1O` [biotinylated ADP-ribose], on GST-tagged AF1521 (ITC at 25°C), the “-TΔS” value amounted to 0.383 kcal/mol, the ΔG was -7.64 kcal/mol and the ΔS is on record as -1,3 cal/mol/K. For the same compound, the Kd at GST-tagged AF1521 (setting [2]) came out at 2550 nM. Besides, the Kd on GST-tagged AF1521 (ITC, read-out: KD value) was found to be 2500 nM.
